The structures appear in SMILES notation. In brackets after ≈: the same amount, converted by molar mass.

For orientation: kinetic solubility means solubility judged after dilution from a stock solution rather than from solid.

The conditions of this data set: buffer; pH 7.4; 200.0 µM.
Take `CCN(Cc1ccccc1)C(=O)COC(=O)[C@@H]1CCCN1C(=O)c1cccs1`: the solubility (kinetic) was > 60.1 µg/mL.
In turn, `CCOC(=O)C1CCN(C(=O)c2cccnc2Oc2ccccc2)CC1` had a kinetic solubility of 50.9 µg/mL (≈ 144 µM).
For the molecule `COc1ccccc1NC(=O)N1CCOCC1`, the solubility (kinetic) is > 35.4 µg/mL.
Under `CCN(C(=O)CSc1nnc(C)c(=O)[nH]1)c1cccc2ccccc12` stands > 53.2 µg/mL; under `CC(C)=CCN1CCN(Cc2cccc3nccnc23)CC1CCO` (stereo unspecified), > 51.1 µg/mL.
Under `CCc1ccccc1NC(=O)c1ccc(OCc2c(C)noc2C)cc1` stands 3.7 µg/mL (≈ 10.6 µM); under `COc1ccc(NC(=O)c2ccc(N3CCOCC3)nc2)cc1`, 6.3 µg/mL (≈ 20.1 µM); under `c1ccc(Oc2cccc3cccnc23)nc1`, 32.5 µg/mL (≈ 146 µM).
To `Cc1nc2c(ccc3c([N+](=O)[O-])cccc32)c(C)c1C` belongs 0.8 µg/mL (≈ 3 µM); to `CC(C)N(Cc1cnn(C)c1)Cc1nc(Cc2ccccc2Cl)no1`, > 54 µg/mL; to `Cc1ccccc1N1CCN(Cc2ccc3c(c2)OCO3)CC1`, 21.5 µg/mL (≈ 69.3 µM).
On to `OCCN1CCN(CC(O)C(F)(F)F)CC1` (stereo unspecified), for which the kinetic solubility was > 36.3 µg/mL.
For `O=C(O)c1ccc(S(=O)(=O)N(Cc2cccs2)CC2CCCO2)cc1` (stereo unspecified), the kinetic solubility is > 57.2 µg/mL.
In the case of `COC(=O)C(=C/C=C/c1cccnc1)C(=O)OC`, the solubility (kinetic) was > 37.1 µg/mL.
To `COCc1cc(C)nc(OC)c1C(N)=O` belongs 23.9 µg/mL (≈ 114 µM); to `O=C(Nc1ccc2oc(-c3ccccc3F)nc2c1)c1ccccc1F`, < 0.4 µg/mL; to `CCOc1ccccc1NC(=O)CCCc1ccc(OC)c(C)c1`, 8.2 µg/mL (≈ 25 µM).
Under `CCOC(=O)c1c(Cc2ccccc2)c[nH]c1C` stands 30.9 µg/mL (≈ 127 µM); under `O=C1NC(c2ccc(Cl)cc2)Oc2ccccc21` (stereo unspecified), 1.7 µg/mL (≈ 6.55 µM).
In turn, `CCOC(=O)C1=C(CN2CCCCCC2)NC(=O)NC1c1ccc2c(c1)OCO2` (stereo unspecified) registered a solubility (kinetic) of 53.5 µg/mL (≈ 133 µM).
To `CS(=O)(=O)c1ccccc1C(=O)Nc1ccc(S(=O)(=O)N2CCCC2)cc1` belongs > 61.3 µg/mL.
Under `Cc1ccc2c(c1)NC(=O)c1cccc([N+](=O)[O-])c1CO2` stands 7 µg/mL (≈ 24.6 µM); under `NCCc1nnc(SCC(=O)Nc2cccc(Cl)c2)o1`, > 46.9 µg/mL; under `CCc1ccc2nc(N)sc2c1`, > 26.7 µg/mL.
To `Cc1cc(=O)n2c3ccccc3n(CC(O)CN3CCOCC3)c2c1C#N` (stereo unspecified) belongs > 55 µg/mL; to `Cn1ccsc1=NC(=O)c1ccccc1OC(F)F`, 38.7 µg/mL (≈ 136 µM).
`CC1(C)C=C2C(=NN(c3ccccc3)C(N)=C2C#N)CO1`: the kinetic solubility was > 42 µg/mL.
Under `Cc1ccccc1CC(=O)NCc1cccnc1` stands > 36 µg/mL; under `O=C(O)c1cc2c(=O)c3ccccc3oc2nc1C(F)(F)F`, > 46.4 µg/mL; under `CC1CCCC(NC(=O)COC(=O)c2ccc([N+](=O)[O-])s2)C1C` (stereo unspecified), 15.4 µg/mL (≈ 45.2 µM).
For the molecule `O=C(COc1cccc(Br)c1)Nc1ccc(Cl)c(S(=O)(=O)N2CCOCC2)c1`, the kinetic solubility came to 4.1 µg/mL (≈ 8.37 µM).
To `COc1ccc(CN(C(=O)/C=C/c2ccco2)C2CCS(=O)(=O)C2)cc1` (stereo unspecified) belongs 44.7 µg/mL (≈ 119 µM).
To `O=C(Nc1ccc(F)c([N+](=O)[O-])c1)C1CCCO1` (stereo unspecified) belongs > 38.1 µg/mL; to `Cc1ccc(C(=O)C(C)OC(=O)Cc2c[nH]c3ccccc23)cc1` (stereo unspecified), 7.2 µg/mL (≈ 22.4 µM).
`N/C(=N\OC(=O)c1cccc(F)c1)c1cccc([N+](=O)[O-])c1` gave a solubility (kinetic) of 1.3 µg/mL (≈ 4.29 µM).
The molecule `O=C(COc1ccccc1Cl)NCCNC(=O)c1cnccn1` registered a solubility (kinetic) of 39.6 µg/mL (≈ 118 µM).
To `COC(=O)c1[nH]c2cc(OC)ccc2c1N=CN(C)C` belongs 38.4 µg/mL (≈ 139 µM); to `COc1cc(CC(=O)OCC(=O)N2CCCCC2)cc(OC)c1OC`, 46.5 µg/mL (≈ 132 µM); to `CN(C(=O)COC(=O)C12CC3CC(CC(Cl)(C3)C1)C2)c1ccccc1`, 21.4 µg/mL (≈ 59.1 µM).
To `OCC1(Cc2ccccc2)CCCN(C2CCCC2)C1` (stereo unspecified) belongs 34.1 µg/mL (≈ 125 µM); to `COc1ccc(CCNC(=O)c2cccn2C)cc1`, 33.3 µg/mL (≈ 129 µM); to `COc1ccccc1NC(=O)CSc1nnc(-c2ccccn2)o1`, > 51.4 µg/mL.
Regarding `O=C(Nc1ccc(Cl)c(C(F)(F)F)c1)c1ccncc1`, the kinetic solubility was 38.7 µg/mL (≈ 129 µM).
As to `CN(c1ccccc1)S(=O)(=O)c1ccc(Cl)c(C(=O)NCc2ccco2)c1`, the solubility (kinetic) is 47.2 µg/mL (≈ 117 µM).
Under `CCN(CC)S(=O)(=O)c1ccc(N2CCOCC2)c(NC(=O)c2sccc2C)c1` stands 11.4 µg/mL (≈ 26.1 µM); under `CN(C)CCNC(=O)c1ccc2c(c1)NC(=O)c1ccccc1S2`, > 51.2 µg/mL; under `Cc1cc(=O)[nH]c2ccc(S(=O)(=O)Nc3ccc(O)cc3)cc12`, > 49.6 µg/mL.
Regarding `Clc1ccc(Cn2ccc3ccccc32)cn1`, the kinetic solubility amounted to 26.4 µg/mL (≈ 109 µM).
As for `CCOc1ccc(C(=O)OCC(=O)N2CCCC2)cc1`, the solubility (kinetic) is > 41.6 µg/mL.
On to `Cc1cccc(C(=O)Nc2scc(-c3ccc(Br)cc3)c2C(=O)O)c1`, for which the solubility (kinetic) worked out at 3.6 µg/mL (≈ 8.65 µM).
`O=C(/C=C/c1ccc(Cl)c(Cl)c1)NCCCn1ccnc1` had a solubility (kinetic) of 38.8 µg/mL (≈ 120 µM). This solubility kinetic lies about 11-fold higher than the previous one.

These data come from PubChem BioAssay AID1996.
